A short description of data set [1]: Experiment 1: dexamethasone concentration in the retina after intravitreal, intrascleral or intrachoroidal gelatin implant (LC/MS/MS). Format: in vivo, Japanese white rabbits. As to conditions: Japanese white, rabbit, 3 μg. The protocol: Experiments were performed to determine the drug release effect of an intrachoroidal implant, an intravitreal implant, and an intrascleral implant. In Experiment 1, the implant was placed in the choroid using the known method illustrated in FIG. 10. […] Therefore, the implant was placed in the choroid using the known method in order to compare the intravitreal implant, the intrascleral implant, and the intrachoroidal implant as to the drug release effect.
Gelatin was cut to have a size of 0.3 (length)×0.3 (width)×0.1 (thick) mm.
Twelve 3-month-old Japanese white rabbits (purchased from Japan SLC, Inc., weight: 2 to 2.5 kg) were used as subjects. The rabbits were equally divided into an intrachoroidal implant group, an intravitreal implant group, and an intrascleral implant group, and the implant was placed in one of the eyes of each rabbit belonging to each group.
Regarding the intrachoroidal implant group, the vitreous gel in the eyeball was liquefied, and the implant was placed in the choroid using the known method for placing an implant in the choroid. The implant was placed in the choroid at a position 6 mm below the cornea.
Regarding the intravitreal implant group, the implant was placed in the vitreous body at a position 2 mm above the cornea.
Regarding the intrascleral implant group, the implant was placed in the sclera at a position 6 mm below the cornea.
The eyeball was removed from each rabbit (four rabbits) belonging to each group when 1, 3, and 24 hours had elapsed after the placement of the implant. […] In FIG. 14, the symbol “*” indicates P<0.05, and the symbol “**” indicates P<0.01.

Data set [2] can be described thus: Experiment 2: dexamethasone concentration in the retina after DEX-PLA implant placed in the choroid near the optic disc (LC/MS/MS). As to conditions: Japanese white, rabbit, other: intrachoroidal implant near the optic disc, 3 μg. The format is in vivo, Japanese white rabbits. From the text:
Nine 3-month-old Japanese white rabbits (purchased from Japan SLC, Inc., weight: 2 to 2.5 kg) were used as subjects, and the implant was placed in one of the eyes of each rabbit.
The implant was placed in the choroid using the method for placing an implant in the choroid according to the embodiments of the invention. Specifically, the conjunctiva was incised, and an injection needle having a size of 25G was inserted between the conjunctiva and the sclera. The tip of the injection needle was advanced to the vicinity of the optic disc along the surface of the sclera. After placing a vitrectomy lens over the cornea so that the eyeground could be observed, the tip of the injection needle appearing white was observed while observing the eyeground through the vitrectomy lens and pressing the sclera using the tip of the injection needle. The tip of the injection needle was moved to determine an appropriate insertion position of the implant in the vicinity of the optic disc, and the tip of the injection needle was inserted diagonally into the sclera. The tip of the injection needle was advanced into the choroid, and the implant was inserted into the choroid through the tip opening formed at the tip of the injection needle.
The eyeball was removed from each rabbit (three rabbits) belonging to each group when 24 hours, 1 week, and 3 weeks had elapsed after the placement of the implant.

Structures are written as SMILES.

In data set [1] (other: intrachoroidal implant), `C[C@@H]1C[C@H]2[C@@H]3CCC4=CC(=O)C=C[C@]4(C)[C@@]3(F)[C@@H](O)C[C@]2(C)[C@@]1(O)C(=O)CO` [dexamethasone] had a concentration at 1 h of 409 ± 115 ng/g, a concentration at 3 h of 23.8 ± 10.2 ng/g and a concentration at 24 h of 4.7 ± 3.3 ng/g. In data set [1] (other: intrascleral implant), this molecule registered a concentration at 1 h of 122 ± 79.7 ng/g, a concentration at 3 h of 5.4 ± 4 ng/g and a concentration at 24 h of 3.3 ± 3.2 ng/g. In data set [1] (other: intravitreal implant), this molecule displayed a concentration at 1 h of 13.5 ± 8.7 ng/g, a concentration at 3 h of 3.6 ± 4.2 ng/g and a concentration at 24 h of 4.2 ± 4.5 ng/g. Also, in data set [2], the concentration at 1 week is 41.2 ± 14.2 ng/g, the concentration at 3 weeks turned out to be 17.2 ± 11.3 ng/g and the concentration at 24 h was 159 ± 28.2 ng/g.

For the origin of these results see US10463532B2, “Method for placing implant in choroid that can less invasively and simply place implant in choroid in optic disc-macula area” (priority 2016, dated 2019).
